Laboratory results published in patent publication US20230390222A1, “Amyloid-Binding Peptoids with Broad-Spectrum Antiviral, Antibacterial, and Antifungal Activity” (The Board of Trustees of the Leland Stanford Junior …, priority 2021, published 2023).
“Also recorded” adds a separate entry of the source.

Experiments:
C. albicans = assay: Activity against C. albicans; format: cell-based
P. aeruginosa = assay: Activity against P. aeruginosa; format: cell-based
S. aureus = assay: Activity against S. aureus; format: cell-based
M tuberculosis = assay: Activity against M tuberculosis; format: cell-based
P. gingivalis = assay: Antimicrobial activity against P. gingivalis; format: cell-based, Porphyromonas gingivalis
Aβ40 = molecular target: T1, Aβ40 (Homo sapiens, UniProt P05067); assay: Thioflavin T (ThT) fluorescence assay of Aβ40 fibril formation in presence of LL-37 or peptoid; format: biochemical
T1 construct: The 40 AA long isoform, Aβ40, is formed predominantly

HSV-1 = assay: Antiviral activity (inactivation) against HSV-1; format: cell-based, Herpes Simplex Virus-1
[1] = ThT fibril formation assay comparing kinetics of Aβ40 wild-type and Aβ40-E22Δ (Osaka) mutant; settings: standard ThT fibril formation conditions, peptide alone
Experimental: FIG. 5 depicts a ThT fibril formation assay comparing fibril formation kinetics of Aβ40 wild-type and the Aβ40-E22Δ (Osaka) FAD mutant.
FIG. 5 illustrates exemplary data of preliminary experiments in which Aβ40-E22Δ was synthesized and subjected to standard conditions utilized in ThT fibril formation assays. FIG. 5 illustrates that the deletion of the E22 residue leads to a pronounced acceleration of fibril formation, which dropped from 196±7 min with Aβ40-WT to 38±1 min with Aβ40-E22Δ. The Aβ40-E22Δ mutant is much more amyloidogenic than Aβ40-WT, which may complicate efforts to block its amyloidogenicity.

T1 sequence (P05067 672-711 limits assumed): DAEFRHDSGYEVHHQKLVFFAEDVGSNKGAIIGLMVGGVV

Substance: H-(NLys-Nspe-Nspe)4-NH2 [Peptoid 1]
- activity against pathogen (C. albicans): active
- activity against pathogen (P. aeruginosa): active
- activity against pathogen (S. aureus): active
- activity against pathogen (M tuberculosis): active
- concentration with antimicrobial activity / killing P. gingivalis bacteria (P. gingivalis): 4 µg/mL
- anti-amyloid activity (prevention of Aβ amyloid formation) (Aβ40; FIG. 1C, 20 μM peptide/peptoid concentrations): shares the same anti-amyloid activity
- concentration with antiviral activity / totally inactivating HSV-1 virus (HSV-1): 4 µg/mL

Substance: LL-37: peptide produced by the human innate immune system, ~4500 g/mol, 37 amino acids
- Aβ fibril formation (ThT fluorescence) (Aβ40; 1:1 equimolar ratio to wildtype Aβ40): totally prevented from forming Aβ fibrils; also recorded: blocks fibril formation
- kinetics of Aβ fibril formation (ThT fluorescence) (Aβ40; lower relative (sub-stoichiometric) molar amounts vs Aβ40): slow the kinetics of fibril formation; also recorded: slows it down in a dose-dependent manner
- final fluorescence at endpoint in ThT fibril formation assay (Aβ40; sub-stoichiometric LL-37 addition): higher fluorescence output at endpoint

Substance: Aβ40-E22Δ: FAD-causing Aβ40 variant with deletion of E22, known as the Osaka mutation (DAEFRHDSGYEVHHQKLVFFADVGSNKGAIIGLMVGGVV; Amyloid-beta protein 40; UniProt P05067 672-711, looked up, variant E22*)
- fibril formation (time) in ThT assay [1]: 38 ± 1 min

Substance: Aβ40-WT: 40 amino acid long wild-type isoform of Amyloid β
- fibril formation (time) in ThT assay [1]: 196 ± 7 min
